HELM strings list units from the 5' end as sugar, base in round brackets, then linkage (d deoxyribose, r ribose, m 2'-O-methyl, p phosphodiester). Strings are as the collection lists them; they lack the last nucleoside at the 3' end of the tested compound. [moe] = 2'-O-(2-methoxyethyl) (MOE); [sp] = phosphorothioate linkage; [m5C] = 5-methylcytosine
Molecular target: GFAP
Assay: mouse, dose not given
Conditions: ASO

Row | Substance | 3 h FOB score
1 | RNA1{[moe]([m5C])[sp].[moe](A)p.[moe](G)p.[moe]([m5C])p.[moe](A)p.[moe](T)p.d(T)[sp].d(T)[sp].d(G)[sp].d(T)[sp].d([m5C])[sp].d(T)[sp].d(T)[sp].d(T)[sp].d(A)[sp].d(T)[sp].[moe](T)p.[moe](T)[sp].[moe](T)}$$$$ (last 3' nucleoside missing) | 1 score 0-7
2 | RNA1{[moe](G)[sp].[moe](G)p.[moe](A)p.[moe](G)p.[moe](G)[sp].d(G)[sp].d(T)[sp].d(G)[sp].d(A)[sp].d([m5C])[sp].d([m5C])[sp].d([m5C])[sp].d(A)[sp].d(A)[sp].d(G)[sp].[moe](T)p.[moe]([m5C])p.[moe]([m5C])[sp].[moe](T)}$$$$ (last 3' nucleoside missing) | 4 score 0-7
3 | RNA1{[moe]([m5C])[sp].[moe](T)p.[moe]([m5C])p.[moe](A)p.[moe](G)p.[moe](T)p.d(T)[sp].d(T)[sp].d(T)[sp].d([m5C])[sp].d([m5C])[sp].d(T)[sp].d([m5C])[sp].d([m5C])[sp].d(A)[sp].d(G)[sp].[moe]([m5C])p.[moe](A)[sp].[moe](G)}$$$$ (last 3' nucleoside missing) | 2 score 0-7
4 | RNA1{[moe]([m5C])[sp].[moe](A)p.[moe]([m5C])p.[moe](A)p.[moe](T)[sp].d(T)[sp].d([m5C])[sp].d(A)[sp].d([m5C])[sp].d(T)[sp].d(A)[sp].d(A)[sp].d(T)[sp].[moe](A)p.[moe](T)p.[moe](T)[sp].[moe](T)}$$$$ (last 3' nucleoside missing) | 0 score 0-7
5 | RNA1{[moe](G)[sp].[moe]([m5C])p.[moe](A)p.[moe](T)p.[moe](T)p.[moe](T)p.d(G)[sp].d(T)[sp].d([m5C])[sp].d(T)[sp].d(T)[sp].d(T)[sp].d(A)[sp].d(T)[sp].d(T)[sp].d(T)[sp].[moe](T)p.[moe](T)[sp].[moe]([m5C])}$$$$ (last 3' nucleoside missing) | 1 score 0-7
6 | RNA1{[moe](T)[sp].[moe](T)p.[moe](G)p.[moe](A)p.[moe](G)p.d(A)[sp].d(T)[sp].d(A)[sp].d(T)[sp].d([m5C])[sp].d(T)[sp].d(T)[sp].d(G)[sp].d(T)[sp].d(G)[sp].[moe](A)p.[moe]([m5C])p.[moe]([m5C])[sp].[moe](T)}$$$$ (last 3' nucleoside missing) | 3 score 0-7
7 | RNA1{[moe](G)[sp].[moe](G)p.[moe](G)p.[moe](T)p.[moe](G)[sp].d(A)[sp].d(G)[sp].d(T)[sp].d(T)[sp].d(T)[sp].d([m5C])[sp].d(T)[sp].d(T)[sp].d(G)[sp].d(T)[sp].[moe](T)p.[moe](A)p.[moe](G)[sp].[moe](T)}$$$$ (last 3' nucleoside missing) | 6 score 0-7
8 | RNA1{[moe](G)[sp].[moe](T)p.[moe](G)p.[moe](A)p.d([m5C])[sp].d(T)[sp].d(A)[sp].d(T)[sp].d([m5C])[sp].d(T)[sp].d(A)[sp].d(G)[sp].d(G)[sp].d(A)[sp].[moe](T)p.[moe](T)p.[moe](T)p.[moe](G)[sp].[moe](G)}$$$$ (last 3' nucleoside missing) | 3 score 0-7
9 | RNA1{[moe](A)[sp].[moe](A)p.[moe](T)p.[moe]([m5C])p.[moe](A)[sp].d(T)[sp].d(T)[sp].d(T)[sp].d([m5C])[sp].d(A)[sp].d(G)[sp].d(G)[sp].d(G)[sp].d([m5C])[sp].d([m5C])[sp].[moe](A)p.[moe](A)p.[moe](T)[sp].[moe](G)}$$$$ (last 3' nucleoside missing) | 5 score 0-7
10 | RNA1{[moe](T)[sp].[moe](T)p.[moe](G)p.[moe](T)p.[moe](G)p.[moe](A)p.d(T)[sp].d(T)[sp].d(T)[sp].d(T)[sp].d([m5C])[sp].d([m5C])[sp].d([m5C])[sp].d([m5C])[sp].d(G)[sp].d(T)[sp].[moe]([m5C])p.[moe](T)[sp].[moe](T)}$$$$ (last 3' nucleoside missing) | 4 score 0-7

Reference: the OligoGym collection
